Holding throughout (format): in vivo
The test system of experiment [1] is db/db mice. As to the kind of experiment: Antidiabetic activity with Exenatide or Glimepiride in db/db mice (studies VII and VIII): non-fasting serum glucose. The note with it: Compound Ia 0.1 mg/kg. The source says: The in-vivo efficacy for antidiabetic activity was done in male and female db/db mice of 12-16 weeks of age. Generally obese and diabetic animals are insulin resistant and have abnormalities in glucose and lipid metabolism. The development of diabetes and beta cell dysfunction in these animal models closely parallels the pathophysiology of the disease condition in humans. […] They progressively develop into insulinopenia with age, a feature commonly observed in last stage of type-2 diabetes, when blood sugar levels are insufficiently controlled. Therefore, this genetic model proves to be suitable for predicting the likely therapeutic benefit of novel euglycemic agents in human type-2 diabetes.
(§1) In this experiment, 49 db/db mice of 12-16 week were divided into 7 groups and as per their day 0 serum glucose levels. […] Detail treatments and routes of administrations were mentioned in Table no. 27. The treatment was given once daily for 7 days.
(§2) The blood was collected by retro-orbital sinus puncture method under light ether anesthesia on day 0 (pretreatment) and on day 6 (one hour after dose administration) for non-fasting glucose analysis and oral glucose tolerance test (OGTT) was performed on day 7 of the treatment in fasting condition. After blood collection serum was separated and analyzed glucose analysis using Spectra max and commercial diagnostic kits. The OGTT procedure followed is as given below—
(§3) The calculation for antidiabetic activity i.e. effect on serum glucose and improvement in glucose Area Under Curve (AUC) was calculated using the excel sheet and Graph Pad Prism software. The day-0 and day-6 glucose values of vehicle control and treatment were considered for calculating the effect on serum glucose. The effect on glucose AUC was calculated using the OGTT glucose levels at different time points and the improvement in glucose AUC were the reduction in glucose AUC after the treatment during OGTT.

Experiment [2] deals with db/db mice. As to the kind of experiment: Oral glucose tolerance test in db/db mice (studies VII and VIII). The note with it: Compound Ia 0.1 mg/kg, Glimepiride 2 mg/kg p.o.; for % improvement in AUC glucose vs control: Table 31 and text, OGTT after 7 days of treatment.
From the text: as §1, §2
Oral Glucose Tolerance Test (OGTT): One day before OGTT all animals were kept on overnight fasting and on the day of OGTT, day 7 of the treatment each animal was dosed with a single dose of vehicle/test compounds administered orally and 60-min post dosing blood was collected (0 min) and glucose load (2 gm/kg/10 ml) administered per orally. Blood was then collected at time points corresponding to 30, 60 and 120 min after glucose load administration. Serum was separated and analyzed for glucose using Spectra max and commercial diagnostic kits.
as §3

Experiment [3] deals with db/db mice. As to the kind of experiment: Oral glucose tolerance test in db/db mice (studies I and II). The note with it: Compound (Ia) 0.1 mg/kg; for AUC Glucose: OGTT day 14, fasting, glucose load 2 gm/kg. The source says: 8. […] 8. The treatment was given oral gavages once daily for 14 days.
The OGTT procedure followed is as given below—

The subject of experiment [4] is db/db mice. As to the kind of experiment: Antidiabetic activity in db/db mice (studies I and II): non-fasting serum glucose. The note with it: Compound (Ia) 0.1 mg/kg. The source says:
The in-vivo efficacy for antidiabetic activity was done for (I) and (II) individually with db/db mice of 13-14 weeks of age.
8. […] 8. The treatment was given oral gavages once daily for 14 days. […]

The test system of a further experiment is Swiss albino mice. As to the kind of experiment: Triglyceride lowering effects of various salts in Swiss albino mice. Conditions: dose equivalent to 1 mg/kg free acid; for Serum triglycerides (mg/dl) Day 0: Day 0 (pretreatment); for Serum triglycerides (mg/dl) Day 0 / Serum triglycerides (mg/dl) Day 6: male Swiss albino mice; for Serum triglycerides (mg/dl) Day 6: Day 6, one hr after dose; for % Change Vs control: serum triglycerides vs vehicle control after 6 days; for % Change Day 6 vs Day 0: serum triglycerides. The protocol:
Comparative Efficacy Study of (Triglyceride Lowering Effects) of Various Salts of Compound (Ia) in Swiss Albino Mice.
The in-vivo efficacy of compound (I) was evaluated in Swiss albino mice. Anti-dyslipidemic drugs have been reported to lower circulating levels of triglyceride in Swiss albino mice through their effect on genes involved in the peroxisomal fatty acid beta oxidation via PPAR alpha agonism. Therefore, this species is preferred for evaluation of their efficacy in lowering circulating triglyceride (TG) levels.
In this experiment, six to eight week old male Swiss albino mice were issued and kept for acclimatization. Near the end of the acclimatization period, animals judged to be suitable for testing were bled under light ether anesthesia and serum samples were analyzed for Serum triglyceride levels.
Test compound was formulated at specified doses in vehicle (10% Polyethylene glycol (PEG) 400+90% of 0.5% Sodium Carboxy methyl cellulose). The animals were dosed orally, once daily in the morning during six days, starting from next day of grouping with vehicle or test compound. The animals were weighed prior to dosing, and based on these weights; the volume of administration was calculated. The volume of formulation administered to each mouse was 10 ml/kg body weight.
On day 6 one hr after the dose administration, blood (0.25 ml) was collected from retro-orbital sinus of the anaesthetized animals. Serum was separated by centrifugation. Serum was analyzed for triglyceride levels. Analysis for serum triglyceride levels was performed using a Spectrophotometer and commercially available kit. Calculations for determination of % change and % reduction in serum TG levels were performed using MS Excels sheet.

[5] abbreviates: Table 3, oral once daily 6 days.
Setting [6] is: Table 5, oral once daily 6 days.

Regarding `CCC1=C(C)CN(C(=O)NCCc2ccc(S(=O)(=O)NC(=O)N[C@H]3CC[C@H](C)CC3)cc2)C1=O` [Glimepiride, reference compound], the “Serum Glucose (mg/dl) Day 0” value in the experiment with db/db mice [1] (Table 30, Day 0 (pretreatment), male and female db/db mice, Glimepiride 2 mg/kg p.o. once daily) was determined as 402.0 mg/dL. For the same compound, the “Serum Glucose (mg/dl) Day 6” value in the experiment with db/db mice [1] (Table 30, Day 6, one hour after dose, non-fasting, Glimepiride 2 mg/kg p.o. once daily) was 506.7 mg/dL. Also, in the experiment with db/db mice [1] (Table 30, serum glucose, Glimepiride 2 mg/kg p.o.), the “% Change Day 6 vs Day 0” value is 26.9%. Moreover, the “% Change Vs control” value in the experiment with db/db mice [1] (Table 30 and text, serum glucose day 6 vs vehicle control, Glimepiride 2 mg/kg p.o.) is listed as 10.1%. In the experiment with db/db mice [2] (Table 31, OGTT day 7, fasting, glucose load 2 gm/kg), the “AUC Glucose” value worked out at 62529.0 mg·min/dL. For the same compound, the “% improvement in AUC glucose vs control” value is given as −2.6% in the experiment with db/db mice [2] and “does not any improvement” in the experiment on db/db mice [2] (listed as glimepiride).
As to `CN(C)C(=N)N=C(N)N` [Metformin, 1,1-Dimethylbiguanidine, reference compound], the “% improvement in AUC glucose vs control” value in the experiment with db/db mice [3] (Table 12, OGTT after 14 days of treatment, Metformin 150 mg/kg p.o.) was 20.4%. In addition, the “AUC Glucose” value in the experiment on db/db mice [3] (Table 12, Metformin 150 mg/kg p.o.) was 45255.9 mg·min/dL.
Turning to `N[C@@H](CC(=O)N1CCn2c(nnc2C(F)(F)F)C1)Cc1cc(F)c(F)cc1F` [Sitagliptin, reference compound], the “Serum Glucose (mg/dl) Day 0” value in the experiment on db/db mice [4] (Table 9, Day 0 (pretreatment), female db/db mice, Sitagliptin 3 mg/kg p.o. once daily) is 407.9 ± 34.5 mg/dL. Also, in the experiment on db/db mice [4] (Table 9, Day 12, non-fasting, female db/db mice, Sitagliptin 3 mg/kg p.o. once daily), the “Serum Glucose (mg/dl) Day 12” value was determined as 485.3 ± 50.5 mg/dL. In addition, the “% Change Vs control” value with db/db mice [4] (Table 9, serum glucose day 12 vs vehicle control, Sitagliptin 3 mg/kg p.o. once daily) was determined as 18.5 ± 5.0%. For the same compound, the “% Change Day 12 vs Day 0” value in the experiment with db/db mice [4] (Table 9, serum glucose, Sitagliptin 3 mg/kg p.o. once daily) is listed as 18.3 ± 5.0%. For the same compound, the “reduction in serum glucose” value with db/db mice [4] (female db/db mice, Sitagliptin 3 mg/kg, Metformin 150 mg/kg) is listed as “does not show any reduction rather it has shown slight increase in serum glucose”. In addition, in the experiment on db/db mice [3] (Table 10, Sitagliptin 3 mg/kg p.o.), the “AUC Glucose” value is 64655.9 ± 6300.6 mg·min/dL.
As to “Benzenepropanoic acid, α-ethoxy-4-[2-[2-methyl-5-[4-(methylthio) phenyl]-1H -pyrrol-1-yl] ethoxy]-, magnesium salt [Compound (Ia)]”, the “Serum triglycerides (mg/dl) Day 0” value with Swiss albino mice (setting [5]) stood at 117.7 ± 13.8 mg/dL; in the experiment with Swiss albino mice (setting [6]), 91.4 ± 8.8 mg/dL; in the experiment on Swiss albino mice (Table 7, po once daily 6 days), 111.1 ± 8.4 mg/dL. Besides, the “Serum triglycerides (mg/dl) Day 6” value with Swiss albino mice (setting [5]) worked out at 38.2 ± 4.1 mg/dL; in the experiment on Swiss albino mice (setting [6]) it was 37.4 ± 3.2 mg/dL; with Swiss albino mice (Table 7, po once daily 6 days), 36.9 ± 2.9 mg/dL. In addition, the “% Change Vs control” value in the experiment on Swiss albino mice (Table 3, oral) is given as −66.1 ± 4.2%; in the experiment on Swiss albino mice (Table 5, oral), −60.5 ± 3.5%; in the experiment with Swiss albino mice (Table 7, po), −61.5 ± 4.6%. The “% Change Day 6 vs Day 0” value with Swiss albino mice (setting [5]) was −66.5 ± 4.1%; in the experiment on Swiss albino mice (setting [6]), −58.3 ± 3.7%; in the experiment on Swiss albino mice (Table 7, po once daily 6 days), −65.5 ± 4.2%.
